Results taken from ChEMBL document CHEMBL1134332, “Design of remarkably simple, yet potent urea-based inhibitors of glutamate carboxypeptidase II (NAALADase)” (J Med Chem, 2001).
Each block holds one compound with its values, some of them ahead of it. Activity calls are given as the source filed them. No cut-off for these calls is given here. Peptide text beside a SMILES is read from it.

Key:
[1] = biological target: T1, Glutamate carboxypeptidase 2 (Rattus norvegicus, UniProt P70627); test: Inhibitory activity against expressed rat Glutamate carboxypeptidase II, using a substrate concentration of 5 uM
T1 sequence (P70627 whole entry): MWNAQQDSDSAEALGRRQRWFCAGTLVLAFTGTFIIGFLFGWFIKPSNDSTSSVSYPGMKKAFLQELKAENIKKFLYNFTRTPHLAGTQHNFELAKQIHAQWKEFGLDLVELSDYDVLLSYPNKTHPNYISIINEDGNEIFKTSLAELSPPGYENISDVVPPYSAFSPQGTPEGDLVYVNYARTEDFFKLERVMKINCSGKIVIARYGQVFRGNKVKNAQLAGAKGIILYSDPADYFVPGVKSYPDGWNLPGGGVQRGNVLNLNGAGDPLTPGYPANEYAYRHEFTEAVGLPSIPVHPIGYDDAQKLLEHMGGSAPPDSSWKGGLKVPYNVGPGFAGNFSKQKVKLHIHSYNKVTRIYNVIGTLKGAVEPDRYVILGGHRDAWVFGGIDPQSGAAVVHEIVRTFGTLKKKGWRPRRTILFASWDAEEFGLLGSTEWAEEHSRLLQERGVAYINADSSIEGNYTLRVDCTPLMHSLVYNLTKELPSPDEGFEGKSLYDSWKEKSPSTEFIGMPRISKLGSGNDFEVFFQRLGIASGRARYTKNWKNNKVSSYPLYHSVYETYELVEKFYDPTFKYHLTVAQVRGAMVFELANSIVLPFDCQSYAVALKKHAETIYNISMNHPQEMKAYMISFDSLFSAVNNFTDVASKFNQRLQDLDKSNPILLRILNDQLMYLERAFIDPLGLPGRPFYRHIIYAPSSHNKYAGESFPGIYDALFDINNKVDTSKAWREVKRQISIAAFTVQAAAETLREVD

[2] = biological target: Glutamate carboxypeptidase 2 (Rattus norvegicus) (UniProt P70627); test: Percentage inhibition at 1 uM against rat Glutamate carboxypeptidase II, using a substrate concentration of 5 uM
Sequence of Glutamate carboxypeptidase 2 (Rattus norvegicus) (P70627 whole entry, looked up): as the sequence (P70627 whole entry) above

[3] = biological target: Glutamate carboxypeptidase 2 (Rattus norvegicus) (UniProt P70627); test: Percentage inhibition at 1 uM against rat Glutamate carboxypeptidase II using a substrate concentration of 5 uM
[4] = biological target: T1, Glutamate carboxypeptidase 2; test: Inhibitory activity against expressed rat Glutamate carboxypeptidase IIusing a substrate concentration of 5 uM
[5] = biological target: Glutamate carboxypeptidase 2 (Rattus norvegicus) (UniProt P70627); test: Percentage inhibition at 1 uM; IA means inactive
[6] = biological target: Glutamate carboxypeptidase 2 (Rattus norvegicus) (UniProt P70627); test: Percentage inhibition at 100 uM

SMILES: CC(C)(C)SCC(NC(=O)N[C@@H](CCC(=O)O)C(=O)O)C(=O)O (stereo partly specified)
IC50 [1]: 29 nM

SMILES: O=C(O)CC[C@H](NC(=O)C(=O)N[C@@H](CCC(=O)O)C(=O)O)C(=O)O
inhibition [2]: 9%

SMILES: CC(C)(C)NC(=O)N[C@@H](CCC(=O)O)C(=O)O
inhibition [3]: 10%

SMILES: O=C(O)CC[C@H](CP(=O)(O)C[C@@H](CCC(=O)O)C(=O)O)C(=O)O
IC50 [1]: 21.7 nM

SMILES: N[C@@H](CCC(=O)O)C(=O)N[C@@H](CCC(=O)O)C(=O)O (H-Glu-Glu-OH)
IC50 [1]: 750 nM

SMILES: O=C(N[C@@H](CS)C(=O)O)N[C@@H](CS)C(=O)O
IA [5]: inactive

SMILES: N[C@@H](CC(=O)O)C(=O)N[C@@H](CC(=O)O)C(=O)O (H-Asp-Asp-OH)
inhibition [6]: 42%

SMILES: O=C(O)CCC(CP(=O)(O)O)C(=O)O (stereo unspecified)
IC50 [1]: 5.1 nM

Second part, the compound after the results:

IC50 [4]: 2400 nM
SMILES: N[C@@H](CC(=O)O)C(=O)N[C@@H](CCC(=O)O)C(=O)O (H-Asp-Glu-OH)

inhibition [3]: 46%
SMILES: O=C(O)CC[C@H](NC(=O)NCC(=O)O)C(=O)O

IC50 [1]: 6.9 nM
SMILES: O=C(O)CC[C@H](NC(=O)N[C@@H](CS)C(=O)O)C(=O)O
